Columns and labels:
[1] = molecular target: T1, proteolytic ADAM33 polypeptide (Homo sapiens, UniProt Q9BZ11); assay: FRET assay for inhibition of the proteolytic activity of a proteolytic ADAM33 polypeptide; assay type: biochemical
T1 construct: The presence of imidazole facilitated the separation of the prodomain from the catalytic domain; made in house; host or cells: Drosophila melanogaster S2 cells (pMT/Bip/V5-His-C, secreted)
T1 sequence (Q9BZ11 204-409): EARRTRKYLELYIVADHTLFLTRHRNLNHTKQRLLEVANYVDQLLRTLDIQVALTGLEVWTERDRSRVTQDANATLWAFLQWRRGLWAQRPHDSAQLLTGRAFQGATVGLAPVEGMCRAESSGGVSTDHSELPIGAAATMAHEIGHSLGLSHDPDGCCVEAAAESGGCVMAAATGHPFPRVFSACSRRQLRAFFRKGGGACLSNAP
Protocol: A FRET assay may also be used to determine the cleavage of a compound by a proteolytic ADAM33 polypeptide. At room temperature, in a total reaction volume of 100 μL per well in a 96 well plate, add 50 μL of 2× Assay Buffer (40 mM HEPES, pH 7.5, 1.0 M NaCl; 1× Assay Buffer being 20 mM HEPES, pH 7.5, 0.5 M NaCl), followed by 25 μL of 100 μM substrate, e.g., SEQ ID NO: 14 (K(Dabcyl)YEVAHQKLAE(Edans)K-OH), and lastly 25 μL of 40 nM a proteolytic ADAM33 polypeptide in Enzyme Dilution Buffer 40 mM HEPES, pH 7.5. The reaction starts after the enzyme is added and is assayed at room temperature for 15–20 minutes by reading the relative fluorescence unit.
For High throughput screening, the FRET assay is performed similarly to that stated above, but with Assay Buffer that is also composed of 0.2 mg/ml BSA (1× Assay Buffer being 20 mM HEPES, pH 7.5, 0.5 M NaCl, 0.2 mg/ml BSA). In addition, the substrate used has a fluorescent donor and an acceptor at either end of the peptide, e.g., SEQ ID NO: 18 ((Cy5Q)WEVAH*QKLAC(Cy3B)K). Lastly, the reaction is incubated at room temperature for 3 hours and then stopped by adding 10 μL EDTA (11 mM). To measure the proteolytic activity of the proteolytic ADAM33 polypeptide on the substrate, the endpoint (relative fluorescence unit) is read using the appropriate excitation and emission wavelengths (e.g., for Cy5Q and Cy3B, 540 nm and 580 nm, respectively). […]

[2] = molecular target: T1, proteolytic ADAM33 polypeptide; assay: Proteolytic activity assay: cleavage of peptide substrates by a proteolytic ADAM33 polypeptide (HPLC); assay type: biochemical; settings: fold versus SEQ ID NO: 8
From the text: The proteolytic activity assay consists of a substrate, preferably at a micromolar to submicromolar concentration, and a proteolytic ADAM33 polypeptide, preferably at a submicromolar concentration, in a benign buffered solution at pH 7–9, more preferably around pH 7.5–8.0. This assay may be set-up to monitor proteolytic activity of a proteolytic ADAM33 polypeptide continuously over a time span of minutes to hours in a 96-well or 384-well format. Alternatively, this assay may be set up to allow an elapse of time span of minutes to hours before the proteolytic activity is quenched and analyzed following acidification to under pH 4 or addition of an excess amount of zinc chelators (e.g., EDTA).
For example, an ADAM33 substrate derived from amyloid percursor protein to assay the proteolytic activity of a proteolytic ADAM33 polypeptide. The cleavage site in the above-mentioned substrate is indicated by a hyphen (i.e., the cleavage site is the scissile bond being between the second histidine and the adjacent glutamine). One particular set of assay conditions contains 25 nM of the proteolytic ADAM33 polypeptide and 25 μM substrate. […] The rate of reaction is measured over a defined time period (e.g., for 1 hour at room temperature) and then stopped. Product formation can be quantified at 214 nm by HPLC using a reverse phase column to separate the substrate from the products. […]

For CNC(=O)[C@@H](NC(=O)[C@H](CC(C)C)[C@H](O)C(=O)NO)C(C)(C)C [marimastat], the “inhibition of the proteolytic activity of a proteolytic ADAM33 polypeptide (in words)” value [1] was “identified as an inhibitor”.

“Ac-Tyr-Glu-Val-Ala-His-Gln-Lys-Leu-Val-Phe-NH2 (Ac-YEVAHQKLVF-NH2) [SEQ ID NO: 13, peptide substrate, code P5P5′, Ac-YEVAH*QKLVF-NH2]” was tested, and the “cleavage rate relative to the 10-mer truncated form of APP28 (SEQ ID NO: 8)” value [2] was “seventeen times greater”.
